Laboratory results from publication PMC4786809, “Determination of cyanidin 3-glucoside in rat brain, liver and kidneys by UPLC/MS-MS and its application to a short-term pharmacokinetic study” (Scientific Reports, 2016).
Several values for one entry are separate records, joined by “and”; a condition that tells them apart may be missing. Equal values may be shown once. Read-outs that look alike come from different tables or passages of the source.

Experiments:
[1] = Plasma concentrations and pharmacokinetics after intravenous bolus of C3G (NCA and two-compartment model); format: in vivo, Wistar rats; conditions: for C0: read-out: C0 (back-extrapolated concentration)
Text: (§1) Twenty-two male Wistar rats (Rattus Norvegicus, Harlan Italy S.r.l.), of same age (15 weeks), 293–390 g of body weight, were used. The rats were randomly divided into 5 groups, according to the time that elapsed after intravenous administration of the test compound, and one control group. Each time point was represented by four biological replicates. All animals were allowed to acclimate to the animal facility of the University of Trieste for at least 2 week before studies were initiated. The experimental design was vetted and approved by the bioethical committee of the University of Trieste (internal code 140PAS14), according to the provisions of the European Community Council Directive 2010/63/EU[39]. The methods were carried out in accordance with the approved guidelines. The animals (n = 22) were maintained in cages in a room at 23 ± 2 °C, 50–60% humidity with a 12-hour light-dark cycle. The night before the experiment, food was withdrawn from the cages but water was given ad libitum. On the day of the experiment, the rats were anesthetized with intra-peritoneal administration of tiletamine/zolazepam (1:1, 25 mg/kg body weight) and xylazine (10 mg/kg body weight). During anaesthesia (10 min in all cases), the heart and ventilation rate were monitored. The rats were placed on their backs, with the ventral side up and with the legs spread separately on a thermo-isolated support. The penis was extruded by sliding the prepuce downwards. The dorsal penis vein was then seen along both sides of the penis and exactly 10 min after anaesthesia 0.2 mL PBS without (control group) or with (treated group) 668 nmol cyanidin 3-glucoside (C3G) in PBS was injected using a 24-G hypodermic needle. Then the injection site was pressed with a swab for a few seconds, and the glans was encouraged to retract to prevent further bleeding. One min before sacrificing the rats, sodium heparin (0.1 ml, 500 IU) was injected again into the dorsal penis vein, exposed in the same way. […] Blood draining and excision of the organs were carried out according to the literature. In detail, blood was collected from the neck of rats hold upside down, immediately after their decapitation, which happened at the time points sharp. Exsanguination took 5 seconds; laparotomy and excision of the liver and the kidneys took 5 more seconds. The post-decapitation procedures were standardised. Urine was collected through the urinary bladder with a syringe before decapitation. Kidneys, liver and brain were washed with mQ water, immediately frozen in liquid nitrogen and stored at −80 °C.
(§2) Immediately after sampling, 5 mL of blood were transferred into ice-cold (−20 °C), deoxygenated aqueous 95% methanol in a ratio 1:9 (v/v). The urine was weighted and transferred into ice-cold, deoxygenated aqueous 95% methanol at a ratio of 1:9 (w/v). Frozen kidneys, liver and brain were grounded under cryogenic conditions (−196 °C) to 5 μm particles in a CryoMill (Retsch, Germany), using a single 25 mm i. d. steel ball (30 seconds, 25/sec frequency). The pulverized tissue was rapidly transferred (without thawing) into ice-cold, deoxygenated aqueous 95% methanol at a ratio of 1:9 (w/v). Cinnamic acid-d5, as internal standard, was dissolved in the aqueous methanol at concentration of 0.1 mg/L for the monitoring of the extraction protocol in biofluids and tissues.
(§3) All samples were extracted with an orbital shaker for 10 min at room temperature. The methanol extracts were then centrifuged for 5 min at 3600 rpm at 4 °C, decanted under a stream of nitrogen in 50 mL dark glass vessels and stored at −80 °C. Clean-up of extracted samples in methanol was performed by solid phase extraction (SPE), as previously described. Briefly, 5 mL of extracted samples were evaporated on a rotary evaporator and reconstituted in 10 mL of acidified water. Anthocyanins were extracted by solid-phase adsorption onto a hydrophobic matrix (Sep-Pak C18, 0.35 g, Waters, Milford, MA). […]

[2] = Liver concentrations and tissue pharmacokinetics after intravenous C3G; format: in vivo, Wistar rats
Text: as §1, §2, §3

[3] = Brain concentrations and tissue pharmacokinetics after intravenous C3G; format: in vivo, Wistar rats
Text: as §1, §2, §3

[4] = Urinary excretion after intravenous C3G; format: in vivo, Wistar rats
Text: as §1, §2, §3

[5] = system: endothelial cell membrane; design: method as in PMID 22387282; conditions: cited from earlier work
[6] = male, Wistar, rat, plasma, iv, 668 nmol, non-compartmental analysis
[7] = male, Wistar, rat, plasma, iv, 668 nmol, two-compartment model analysis

Plasma concentration range with linear plasma/brain correlation ([1]; 0.25–20 min): 19 to 355 nM and 18.78 to 354.84 nM
Time after which half of the compound had been cleared from the plasma ([1]; distribution phase): 18 s
Time window needed to describe complete elimination ([1]; estimate): no more than 1 hour
k el ([1]; male, Wistar, rat, iv, non-compartmental analysis, plasma, i.v. 668 nmol, read-out: λz (first order terminal elimination rate constant) (converted)): 0.00167 s⁻¹
AUC0-t ([1]; male, Wistar, rat, iv, plasma, i.v. 668 nmol C3G, read-out: AUC0–20 (converted)): 0.0194 µM·h
time to complete elimination ([1]; male, Wistar, rat, plasma, intravenous, 668 nmol, estimate, read-out: Time for complete elimination (5–6 half-lives)): 40 to 50 min
C0 ([1]; male, Wistar, rat, plasma, intravenous, 668 nmol, non-compartmental analysis): 429 nM
half-life ([1]; male, Wistar, rat, plasma, intravenous, 668 nmol, plasma, read-out: Mean half-life): < 8 min
C0 ([1]; male, Wistar, rat, plasma, intravenous, 668 nmol, two-compartment model analysis): 550 nM
MRT ([1]; male, Wistar, rat, plasma, intravenous, 668 nmol, two-compartment model analysis, read-out: MRT (converted)): 9.21 min
MRT ([1]; male, Wistar, rat, plasma, intravenous, 668 nmol, two-compartment model analysis, read-out: MRTP (mean residence time in the peripheral space) (converted)): 6.68 min
AUC(0-inf) [1, 6]: 0.0225 µM·h
Cmax [1, 6]: 355 nM
Tmax [1, 6]: 0.25 min
C0 [1, 6]: 429 nM
clearance ([1]; male, Wistar, rat, plasma, iv, 668 nmol, non-compartmental analysis, read-out: CL (total body clearance)): 490 mL/min
MRT ([1]; male, Wistar, rat, plasma, iv, 668 nmol, non-compartmental analysis, read-out: MRT (converted)): 8.72 min
Vd ([1]; male, Wistar, rat, plasma, iv, 668 nmol, non-compartmental analysis, read-out: Vss): 4.31 L
Vd ([1]; male, Wistar, rat, plasma, iv, 668 nmol, non-compartmental analysis, read-out: Vz): 4.92 L
half-life ([1]; male, Wistar, rat, plasma, iv, 668 nmol, non-compartmental analysis, read-out: t1/2 (terminal elimination half-life)): 6.9 min
half-life ([1]; male, Wistar, rat, plasma, iv, 668 nmol, plasma, i.v. 668 nmol C3G, read-out: Half life): 6.9 min
AUC(0-inf) [1, 7]: 0.0222 µM·h
C0 [1, 7]: 550 nM
MRT ([1]; male, Wistar, rat, plasma, iv, 668 nmol, two-compartment model analysis, read-out: MRT (converted)): 9.22 min
Vd ([1]; male, Wistar, rat, plasma, iv, 668 nmol, two-compartment model analysis, read-out: Vss): 4.58 L
half-life ([1]; male, Wistar, rat, plasma, iv, 668 nmol, two-compartment model analysis, read-out: t1/2e (elimination half-life)): 7.41 min
half-life ([1]; male, Wistar, rat, plasma, iv, 668 nmol, two-compartment model analysis, read-out: t1/2d (distribution half-life)): 0.3 min
concentration at 0.25 min ([1]; male, Wistar, rat, plasma, iv, 0.25 min after i.v. 668 nmol C3G, mean ± SEM n=4): 355 ± 54.2 nM
concentration at 2 min ([1]; male, Wistar, rat, plasma, iv, 2 min after i.v. 668 nmol C3G, mean ± SEM n=4): 93.8 ± 9.01 nM
concentration at 5 min ([1]; male, Wistar, rat, plasma, iv, 5 min after i.v. 668 nmol C3G, mean ± SEM n=4): 72.2 ± 5.47 nM
concentration at 15 min ([1]; male, Wistar, rat, plasma, iv, 15 min after i.v. 668 nmol C3G, mean ± SEM n=4): 17.5 ± 2.04 nM
concentration at 20 min ([1]; male, Wistar, rat, plasma, iv, 20 min after i.v. 668 nmol C3G, mean ± SEM n=4): 18.8 ± 4.06 nM
AUMC ([1]; non-compartmental analysis): 11789.96 nM*min^2
Residual amount eliminated per min ([1]; per min): ca. 10%
Time for distribution to go to 50% completion ([1]; rat, in vivo): ca. 8 s
Fraction distributed beyond plasma at distribution equilibrium ([1]; steady state): 99.76%
Fraction present in plasma at distribution equilibrium ([1]; steady state): 0.24%
Share of MRT spent in the peripheral space ([1]; two-compartment model): 73.51%
AUMC ([1]; two-compartment model analysis): 12394.67 nM*min^2
CL (total body clearance) ([1]; two-compartment model analysis): 0.49 L/min
FAUC (AUC peripheral bioavailability, MRTP/MRTC) ([1]; two-compartment model analysis): 2.77
IC (number of circulations, MRTP/MTTP) ([1]; two-compartment model analysis): 3.55
MTT (mean transit time; MTTC, mean duration of one visit in central compartment) ([1]; two-compartment model analysis): 0.54 min
MTTp (mean transit time in the peripheral space) ([1]; two-compartment model analysis): 1.91 min
V1 (volume of central compartment) ([1]; two-compartment model analysis): 1.21 L
V2 (volume of peripheral compartment) ([1]; two-compartment model analysis): 3.36 L
a (T0 intercept of distribution kinetics) ([1]; two-compartment model analysis): 442.79 nM
b (T0 intercept of elimination phase) ([1]; two-compartment model analysis): 107.68 nM
k10 ([1]; two-compartment model analysis): 0.41 min^–1
k12 ([1]; two-compartment model analysis): 1.45 min^–1
k21 ([1]; two-compartment model analysis): 0.52 min^–1
α (slope factor) ([1]; two-compartment model analysis): 2.29 min^–1
β (slope factor) ([1]; two-compartment model analysis): 0.09 min^–1
Mean concentration in liver ([2]; 0.25 min after i.v. 668 nmol C3G, mean ± SEM n=4): 56.61 ± 11.79 pmol/g
Mean concentration in liver ([2]; 2 min after i.v. 668 nmol C3G): 19.22 ± 1.99 pmol/g
Mean concentration in liver ([2]; 5 min after i.v. 668 nmol C3G): 20.91 ± 2.61 pmol/g
Mean concentration in liver ([2]; 15 min after i.v. 668 nmol C3G): 11.02 ± 2.24 pmol/g
Mean concentration in liver ([2]; 20 min after i.v. 668 nmol C3G): 5.54 ± 0.33 pmol/g
MTTL (Mean Transit Time in the liver) ([2]; liver): 1.43 min
AUC0-t ([2]; liver, i.v. 668 nmol C3G): 345.3 pmol·min/g and 345.29 pmol·min/g
half-life ([2]; male, Wistar, rat, liver, iv, 668 nmol, read-out: Half-life): 8.15 min
Mean concentration in brain ([3]; 0.25 min after i.v. 668 nmol C3G, mean ± SEM n=4, corrected for residual blood): 40.46 ± 9.67 pmol/g
Mean concentration in brain ([3]; 2 min after i.v. 668 nmol C3G): 7.48 ± 0.79 pmol/g
Mean concentration in brain ([3]; 5 min after i.v. 668 nmol C3G): 7.05 ± 0.55 pmol/g
Mean concentration in brain ([3]; 15 min after i.v. 668 nmol C3G): 2.18 ± 0.58 pmol/g
Mean concentration in brain ([3]; 20 min after i.v. 668 nmol C3G): 2.21 ± 0.44 pmol/g
MTTB (Mean Transit Time in the brain) ([3]; brain): 0.43 min
AUC0-t ([3]; brain, i.v. 668 nmol C3G): 119.9 pmol·min/g and 119.89 pmol·min/g
half-life ([3]; male, Wistar, rat, brain, iv, 668 nmol): 8.8 min
concentration at 15 sec ([3]; male, Wistar, rat, brain, iv, 668 nmol, 15 sec after i.v., read-out: Corresponding brain concentration assuming free diffusion in a water compartment): ~50 nM
Urine concentration ([4]; 0.25 min after i.v. 668 nmol C3G): 0.02 ± 0.01 nmol/g
Urine concentration ([4]; 2 min after i.v. 668 nmol C3G): 2.69 ± 0.82 nmol/g
Urine concentration ([4]; 5 min after i.v. 668 nmol C3G): 20.20 ± 2.61 nmol/g
Injected dose recovered in urine ([4]; 5 min after the injection): 15%
Urine concentration ([4]; 15 min after i.v. 668 nmol C3G): 11.95 ± 6.53 nmol/g
Urine concentration ([4]; 20 min after i.v. 668 nmol C3G): 5.66 ± 1.31 nmol/g
SMILES: OC[C@H]1O[C@@H](Oc2cc3c(O)cc(O)cc3[o+]c2-c2ccc(O)c(O)c2)[C@H](O)[C@@H](O)[C@@H]1O [C3G, Cyanidin-3-O-β-glucoside]
Time frame to pass the endothelial cell membrane [5]: < 1 min
